The values below come from DBAASP.

A word on the MIC: it is the lowest concentration that inhibits growth of the organism. The low end stands for greater potency, the high end for weaker potency.

Assay in all cases: ≥ marks a high value that may be exact or a test limit, other limits are often not marked, values filed in µg/mL are converted to µM
One test relates to Candida albicans.
For test [1], the system named is Staphylococcus aureus FDA 209P JC-1.
Test [2] concerns Escherichia coli NIHJ JC-2.
Test [3] has as its system Bacillus subtilis ATCC 6633.

≈ marks a conversion by molar mass, not a printed value.

As to `CC(C)C[C@H](NC(=O)CN)C(=O)N[C@@H](CC(C)C)C(=O)N[C@@H](CC(=O)O)C(=O)N[C@@H](CO)C(=O)N[C@@H](CC(C)C)C(=O)N[C@@H](CCCCN)C(=O)NCC(=O)N[C@@H](Cc1ccccc1)C(=O)N[C@@H](C)C(=O)N[C@@H](C)C(=O)N[C@H](C(=O)N[C@@H](C)C(=O)NCC(=O)N[C@@H](CCCCN)C(=O)NCC(=O)N[C@H](C(=O)N[C@@H](CC(C)C)C(=O)N[C@@H](CCC(N)=O)C(=O)N[C@@H](CO)C(=O)N[C@@H](CC(C)C)C(=O)N[C@@H](CC(C)C)C(=O)N[C@@H](CO)C(=O)N[C@H](C(=O)N[C@@H](C)C(=O)N[C@@H](CO)C(=O)N[C@H]1CSSC[C@@H](C(=O)O)NC(=O)[C@H]([C@@H](C)O)NC(=O)[C@H](CCCCN)NC(=O)[C@H](C)NC(=O)[C@H](CC(C)C)NC(=O)[C@H](CCCCN)NC1=O)[C@@H](C)O)C(C)C)[C@@H](C)O` [GLLDSLKGFAATAGKGVLQSLLSTASCKLAKTC], the MIC against Candida albicans is over 40 µM; in test [1] it was 2.46 µM (≈ 8 µg/mL); in test [2], 1.23 µM (≈ 4 µg/mL); in test [3] it was 0.615 µM (≈ 2 µg/mL).
